Test results from patent US20080063628A1, “METHODS TO PROMOTE CELL DIFFERENTIATION” (priority 2006, published 2008).

How the values were obtained:
Test in all cases: Two sequential high dose trichostatin A treatments (24 h each), gene expression by RT-PCR (Example 8)
Type in all cases: cell-based, human
[1] = tested on: early passage (P5) pancreatic-derived stromal cell line; details: for HNF-3 beta gene expression / Insulin gene expression / Pdx-1 gene expression / glucagon gene expression: 5 μM 0-24 h + 96-120 h
Protocol: (§1) Several cell lines obtained from different amniotic fluid specimens (see Example 14) and pancreas donors (see Example 13) were tested with similar results. Two lines at similar passage number but derived from different amniotic fluid specimens are shown in Table VIII-A and Table VIII-B for this example. One of these cell lines was also used in examples 2 and 4 above. In addition, this example also contains comparison data in Table VIII-C and Table VIII-D for a single pancreatic-derived stromal line grown to early and late passage number.
(§2) Amniotic fluid derived cells or pancreatic-derived stromal cells were seeded into 24-well tissue culture plates at a density of 5000/cm^2 and cultured in AMNIOMAX (Invitrogen) or DMEM with 10% FBS respectively under standard cell culture conditions until confluent. After the cells reached confluency, amniotic fluid derived cells were treated at time 0 hours with a dose of 1.25 μM trichostatin A, and pancreatic-derived stromal cells were treated with a dose of 5.0 μM trichostatin A solubilized in DMSO and medium. At time 24 hours, cell cultures underwent a complete medium change to remove all traces of trichostatin A. At time 96 hours, cell cultures were re-fed with fresh medium and received a second dose of trichostatin A at the same concentration as used previously. At time 120 hours, cell cultures again underwent a complete medium change and were cultured for an additional 24 hours or […] total incubation time.
(§3) Samples were taken daily for RT-PCR at the times indicated in Table VIII-A to D. The culture media was removed, and samples were rinsed in PBS then collected in RLT with β-mercaptoethanol (Qiagen). RNA was purified using the RNeasy Mini Kit (Qiagen) and RNA quantity and quality were determined using a spectrophotometer. cDNA was made using the iScript cDNA synthesis kit (BioRad).
(§4) Samples of 20 ng cDNA were used in each reaction to determine the expression levels of the following genes in amniotic fluid-derived cells: Gata1, HNF-3 beta, Pdx-1, insulin, and Sox17. Similarly, samples of 20 ng cDNA were used in each reaction to determine the expression level of the following genes in pancreatic-derived cells: glucagon, HNF-3 beta, insulin and Pdx-1. Real-Time PCR was performed on the Applied Biosystems 7500, and data was analyzed using the accompanying software according to the methods described in Example 15.
(§5) Real-time PCR amplifcation and quantitative analysis. Unless otherwise stated, all reagents were purchased from Applied Biosystems. Real-time PCR reactions were performed using the ABI PRISM™ 7500 Sequence Detection System. TAQMAN™ FAST UNIVERSAL PCR MASTER MIX™ (ABI, CA) was used with 20 ng of reverse transcribed RNA in a total reaction volume of 20 μl. Each cDNA sample was run in duplicate to allow correction of pipetting errors. Primers and FAM-labeled TAQMAN™ probes were used at concentrations of 200 nM. The level of expression for each target gene was normalized using the pre-developed Applied Biosystem's human glyceraldehyde-3-phosphate dehydrogenase (GAPDH) endogenous control kit. Primers and probes were designed using either ABI PRISM PRIMER EXPRESS™ software or a pre-developed ABI gene analysis kit. For each gene, either one of the primers or the probe were designed to be exon-boundary spanning. This eliminated the possibility of the primers/probe binding to any genomic DNA present. The primer and probe sets are listed as follows: Pdx-1 (Hs00426216), Insulin (Hs00355773), glucagon (Hs00174967), and FoxA2 (HNF 3-beta) (Hs00232764). The remaining primers were designed using the PRIMERS program (ABI, CA). After an initial 95° C. incubation for 20 sec, samples were cycled 40 times in two stages: a denaturation step at 95° C. for 3 sec, followed by an annealing/extension step at 60° C. for 30 sec. […]

[2] = tested on: late passage (P11) pancreatic-derived stromal cell line; details: for HNF-3 beta RT-PCR detection cycle / Pdx-1 RT-PCR detection cycle / glucagon RT-PCR detection cycle: 5.0 μM
Protocol: as §1, §2, §3, §4, §5

[3] = tested on: amniotic fluid-derived cell line; details: for Gata1 gene expression / HNF-3 beta gene expression / Insulin gene expression / Pdx-1 gene expression / sox17 gene expression: 1.25 μM 0-24 h + 96-120 h
Protocol: as §1, §2, §3, §4, §5

[4] = 5.0 μM, following first treatment
[5] = 5 μM 0-24 h + 96-120 h, 120 hrs

With `CC(/C=C/C(=O)NO)=C\[C@@H](C)C(=O)c1ccc(N(C)C)cc1` [trichostatin A] the “HNF-3 beta gene expression” value ([1]; 24 hrs) was “+++ (detectable at less than 35 cycles by RT-PCR with SE less than 0.9)”, the Insulin gene expression ([1]; 24 hrs) was “nd (not detectable at >40 cycles by RT-PCR)” and the Pdx-1 gene expression ([1]; 24 hrs) was “++ (detectable at less than 35 cycles by RT-PCR with SE greater than 0.9)”. The glucagon gene expression ([1]; 24 hrs) was “+++ (detectable at less than 35 cycles by RT-PCR with SE less than 0.9)”, the “HNF-3 beta gene expression” value ([1]; 48 hrs) was “nd (not detectable at >40 cycles by RT-PCR)” and the Insulin gene expression ([1]; 48 hrs) was “nd (not detectable at >40 cycles by RT-PCR)”. The Pdx-1 gene expression ([1]; 48 hrs) was “nd (not detectable at >40 cycles by RT-PCR)”, the glucagon gene expression ([1]; 48 hrs) was “+ (detectable between 35 and 40 cycles by RT-PCR)” and the “HNF-3 beta gene expression” value ([1]; 72 hrs) was “nd (not detectable at >40 cycles by RT-PCR)”. For the same molecule, the Insulin gene expression ([1]; 72 hrs) was “nd (not detectable at >40 cycles by RT-PCR)”, the Pdx-1 gene expression ([1]; 72 hrs) was “nd (not detectable at >40 cycles by RT-PCR)” and the glucagon gene expression ([1]; 72 hrs) was “+ (detectable between 35 and 40 cycles by RT-PCR)”. For the same molecule, the “HNF-3 beta gene expression” value ([1]; 96 hrs) was “nd (not detectable at >40 cycles by RT-PCR)”, the Insulin gene expression ([1]; 96 hrs) was “nd (not detectable at >40 cycles by RT-PCR)” and the Pdx-1 gene expression ([1]; 96 hrs) was “nd (not detectable at >40 cycles by RT-PCR)”. The glucagon gene expression ([1]; 96 hrs) was “nd (not detectable at >40 cycles by RT-PCR)”, the “HNF-3 beta gene expression” value ([1]; 120 hrs) was “+ (detectable between 35 and 40 cycles by RT-PCR)” and the Insulin gene expression ([1]; 120 hrs) was “nd (not detectable at >40 cycles by RT-PCR)”. The Pdx-1 gene expression ([1]; 120 hrs) was “+++ (detectable at less than 35 cycles by RT-PCR with SE less than 0.9)”, the glucagon gene expression ([1]; 120 hrs) was “nd (not detectable at >40 cycles by RT-PCR)” and the “HNF-3 beta gene expression” value ([1]; 144 hrs) was “nd (not detectable at >40 cycles by RT-PCR)”. The Insulin gene expression ([1]; 144 hrs) was “nd (not detectable at >40 cycles by RT-PCR)”, the Pdx-1 gene expression ([1]; 144 hrs) was “nd (not detectable at >40 cycles by RT-PCR)” and the glucagon gene expression ([1]; 144 hrs) was “+ (detectable between 35 and 40 cycles by RT-PCR)”. For the same molecule, the “Pdx-1 RT-PCR detection cycle” value ([1]; 5.0 μM, after the second treatment) was 32 cycles, the “glucagon RT-PCR detection cycle” value ([1]; 5.0 μM, end of the experiment) was 38 cycles and the “HNF-3 beta RT-PCR detection cycle” value ([1]; 5.0 μM, following a second treatment) was 36 cycles. For the same molecule, the “HNF-3 beta RT-PCR detection cycle” value [1, 4] was 34 cycles, the “glucagon RT-PCR detection cycle” value [1, 4] was 35 cycles and the Pdx-1 gene expression ([2]; 5 μM 0-24 h + 96-120 h, 24 hrs) was “+ (detectable at less than 35 cycles with SE greater than 0.9)”. For the same molecule, the Insulin gene expression ([2]; 5 μM 0-24 h + 96-120 h, 48 hrs) was “+ (detectable at less than 35 cycles with SE greater than 0.9)”, the glucagon gene expression ([2]; 5 μM 0-24 h + 96-120 h, 48 hrs) was “+ (detectable at less than 35 cycles with SE greater than 0.9)” and the glucagon gene expression ([2]; 5 μM 0-24 h + 96-120 h, 72 hrs) was “+ (detectable at less than 35 cycles with SE greater than 0.9)”. The glucagon gene expression ([2]; 5 μM 0-24 h + 96-120 h, 96 hrs) was “+ (detectable at less than 35 cycles with SE greater than 0.9)”, the “HNF-3 beta gene expression” value [2, 5] was “+ (detectable at less than 35 cycles with SE greater than 0.9)” and the glucagon gene expression [2, 5] was “+ (detectable at less than 35 cycles with SE greater than 0.9)”. For the same molecule, the glucagon gene expression ([2]; 5 μM 0-24 h + 96-120 h, 144 hrs) was “+ (detectable at less than 35 cycles with SE greater than 0.9)”, the “HNF-3 beta RT-PCR detection cycle” value ([2]; after the second treatment) was 36 cycles and the “HNF-3 beta RT-PCR detection cycle” value ([2]; following first treatment) was 32 cycles. The “Pdx-1 RT-PCR detection cycle” value ([2]; following first treatment) was 31 cycles, the “glucagon RT-PCR detection cycle” value ([2]; following first treatment) was 33 cycles and the “glucagon RT-PCR detection cycle” value ([2]; following the medium change) was 38 cycles. The “Pdx-1 RT-PCR detection cycle” value ([2]; following the second addition) was 34 cycles, the Gata1 gene expression ([3]; 24 hrs) was “+ (detectable between 35 and 40 cycles by RT-PCR)” and the “HNF-3 beta gene expression” value ([3]; 24 hrs) was “+++ (detectable at less than 35 cycles by RT-PCR with SE less than 0.9)”. For the same molecule, the Insulin gene expression ([3]; 24 hrs) was “nd (not detectable at >40 cycles by RT-PCR)”, the Pdx-1 gene expression ([3]; 24 hrs) was “+++ (detectable at less than 35 cycles by RT-PCR with SE less than 0.9)” and the sox17 gene expression ([3]; 24 hrs) was “+++ (detectable at less than 35 cycles by RT-PCR with SE less than 0.9)”. For the same molecule, the Gata1 gene expression ([3]; 48 hrs) was “nd (not detectable at >40 cycles by RT-PCR)”, the “HNF-3 beta gene expression” value ([3]; 48 hrs) was “+++ (detectable at less than 35 cycles by RT-PCR with SE less than 0.9)” and the Insulin gene expression ([3]; 48 hrs) was “nd (not detectable at >40 cycles by RT-PCR)”. The Pdx-1 gene expression ([3]; 48 hrs) was “nd (not detectable at >40 cycles by RT-PCR)”, the sox17 gene expression ([3]; 48 hrs) was “+++ (detectable at less than 35 cycles by RT-PCR with SE less than 0.9)” and the Gata1 gene expression ([3]; 72 hrs) was “nd (not detectable at >40 cycles by RT-PCR)”. The “HNF-3 beta gene expression” value ([3]; 72 hrs) was “+ (detectable between 35 and 40 cycles by RT-PCR)”, the Insulin gene expression ([3]; 72 hrs) was “+ (detectable between 35 and 40 cycles by RT-PCR)” and the Pdx-1 gene expression ([3]; 72 hrs) was “nd (not detectable at >40 cycles by RT-PCR)”. For the same molecule, the sox17 gene expression ([3]; 72 hrs) was “+++ (detectable at less than 35 cycles by RT-PCR with SE less than 0.9)”, the Gata1 gene expression ([3]; 96 hrs) was “nd (not detectable at >40 cycles by RT-PCR)” and the “HNF-3 beta gene expression” value ([3]; 96 hrs) was “+ (detectable between 35 and 40 cycles by RT-PCR)”. The Insulin gene expression ([3]; 96 hrs) was “+ (detectable between 35 and 40 cycles by RT-PCR)”, the Pdx-1 gene expression ([3]; 96 hrs) was “nd (not detectable at >40 cycles by RT-PCR)” and the sox17 gene expression ([3]; 96 hrs) was “+++ (detectable at less than 35 cycles by RT-PCR with SE less than 0.9)”. For the same molecule, the Gata1 gene expression ([3]; 120 hrs) was “nd (not detectable at >40 cycles by RT-PCR)”, the “HNF-3 beta gene expression” value ([3]; 120 hrs) was “+++ (detectable at less than 35 cycles by RT-PCR with SE less than 0.9)” and the Insulin gene expression ([3]; 120 hrs) was “nd (not detectable at >40 cycles by RT-PCR)”. For the same molecule, the Pdx-1 gene expression ([3]; 120 hrs) was “+++ (detectable at less than 35 cycles by RT-PCR with SE less than 0.9)”, the sox17 gene expression ([3]; 120 hrs) was “+++ (detectable at less than 35 cycles by RT-PCR with SE less than 0.9)” and the Gata1 gene expression ([3]; 144 hrs) was “nd (not detectable at >40 cycles by RT-PCR)”. For the same molecule, the “HNF-3 beta gene expression” value ([3]; 144 hrs) was “+++ (detectable at less than 35 cycles by RT-PCR with SE less than 0.9)”, the Insulin gene expression ([3]; 144 hrs) was “nd (not detectable at >40 cycles by RT-PCR)” and the Pdx-1 gene expression ([3]; 144 hrs) was “nd (not detectable at >40 cycles by RT-PCR)”. For the same molecule, the sox17 gene expression ([3]; 144 hrs) was “+++ (detectable at less than 35 cycles by RT-PCR with SE less than 0.9)”, the “Gata-1 RT-PCR detection cycle” value ([3]; 1.25 μM, following the first addition) was 37 cycles and the “Insulin RT-PCR detection cycle” value ([3]; 1.25 μM, following the media change) was 36 cycles. The “HNF-3 beta RT-PCR detection cycle” value ([3]; 1.25 μM, initial treatment) was 32 cycles, the “Pdx-1 RT-PCR detection cycle” value ([3]; 1.25 μM, initial treatment (37 before treatment)) was 32 cycles and the “HNF-3 beta RT-PCR detection cycle” value ([3]; 1.25 μM, second treatment) was 32 cycles. The “Pdx-1 RT-PCR detection cycle” value ([3]; 1.25 μM, second treatment) was 34 cycles.
